Values quoted from earlier work, collected in patent US20260373193A1, “CARCINOGENESIS REDUCTION WITH PENTAAZA MACROCYLIC RING COMPLEX” (GALERA LABS, LLC, priority 2023, published 2026).

Legend:
colon of rats = conditions: experimental colitis; cited from earlier work
[1] = test system: radiation-induced oral mucositis; conditions: hamster; cited from earlier work
radiation damage = conditions: adult mice; cited from earlier work
inflammation = conditions: rat; cited from earlier work
[2] = test system: collagen-induced arthritis; conditions: rat collagen-induced arthritis; cited from earlier work
[3] = test system: acute and sub-chronic radiation damage; platinum therapy kidney damage; conditions: mucositis, pulmonary pneumonitis and fibrosis, liver damage; cited from earlier work
established tumors = conditions: cited from earlier work

SMILES	injury to the colon (colon of rats)	radiation-induced oral mucositis [1]	radiation damage, lethal total body irradiation (radiation damage)	inflammation (inflammation)	joint disease [2]	overt acute and sub-chronic radiation damage; platinum therapy kidney damage [3]	efficacy of radiation and other therapies (established tumors)
[Cl-].[Cl-].[Mn+2].c1cc2nc(c1)CN[C@@H]1CCCC[C@H]1NCCN[C@@H]1CCCC[C@H]1NC2 [GC4403]	very significantly reduce the injury to the colon of rats	attenuate the radiation damage	attenuate the radiation damage	inhibit inflammation	prevent joint disease	reduce overt acute and sub-chronic radiation damage	enhance the efficacy of radiation and other therapies
CCC(=O)[O-].CCC(=O)[O-].[Mn+2].c1cc2nc(c1)CN[C@H]1CCCC[C@@H]1NCCN[C@H]1CCCC[C@@H]1NC2 [GC4711]	–	–	–	–	–	reduce overt acute and sub-chronic radiation damage	enhance the efficacy of radiation and other therapies
